In US20110178041A1, “HETEROCYCLIC BIARYL DERIVATIVE AND PDE INHIBITOR COMPRISING SAME AS ACTIVE INGREDIENT” (priority 2008, published 2011):

Assays:
[1] = target: T1, PDE4B catalytic zone (PDE4Bcat) (Homo sapiens, UniProt Q07343); assay: Phosphodiesterase 4 inhibitory activity ([3H]-cAMP, recombinant PDE4Bcat); assay type: biochemical; settings: 30° C. 20 minutes, read-out: IC50 (μmol/L) PDE4
T1 construct: made in house; host or cells: Sf9 insect cells (baculovirus, Bac-to-Bac / Gateway)

[2] = target: T2, PDE3A catalytic zone (PDE3Acat) (Homo sapiens, UniProt Q14432); assay: Phosphodiesterase 3-inhibitory activity ([3H]-cAMP, recombinant PDE3Acat); assay type: biochemical; settings: 30° C. 20 minutes, read-out: IC50 value, PDE3
T2 construct: made in house; host or cells: Sf9 insect cells (baculovirus, Bac-to-Bac / Gateway)

[3] = tested on: LPS-induced pulmonary inflammation (total leukocytes in BALF); assay: LPS-induced pulmonary inflammation in rats; assay type: in vivo; settings: Leukocyte; rat, 3 mg/kg oral one hour before LPS inhalation, BALF 3 hours after LPS; read-out: rate of inhibition of total number of leukocytes in BALF
Protocol: One hour before the inhalation of lipopolysaccharide from E. coli serotype 055:B5 (LPS), each candidate compound was orally administered to each test rat in a dose of 3 mg/kg, and then the test animal was allowed to inhale an LPS solution (50 mL) over 30 minutes, while the solution was atomized using a nebulizer. After 3 hours from the LPS-inhalation, the rats were euthanized by the administration of a 20% urethane solution (5 ml/rat, i.p.). The bronchial cannula was inserted through the trachea. Broncoalveolar lavage was performed by injecting 5 ml physiological saline, three consecutive times using a 5 mL volume syringe. The operations were repeated twice and these physiological saline samples were recovered as broncoalveolar lavage fluid (BALF). Each of the BALF thus recovered was centrifuged at 1200 rpm and 4° C. for 10 minutes (Hirtachi; himac […]), the resulting residue was again suspended in 10 mL of 0.1% bovine serum albumin-containing physiological saline, an equivalent volume of Turk's diluting fluid was added to the suspension to thus stain the leukocytes present therein and the total number of leukocytes was determined under the microscopic observation to thus calculate the rate of inhibition.

T2 sequence (Q14432 674-1093 limits assumed): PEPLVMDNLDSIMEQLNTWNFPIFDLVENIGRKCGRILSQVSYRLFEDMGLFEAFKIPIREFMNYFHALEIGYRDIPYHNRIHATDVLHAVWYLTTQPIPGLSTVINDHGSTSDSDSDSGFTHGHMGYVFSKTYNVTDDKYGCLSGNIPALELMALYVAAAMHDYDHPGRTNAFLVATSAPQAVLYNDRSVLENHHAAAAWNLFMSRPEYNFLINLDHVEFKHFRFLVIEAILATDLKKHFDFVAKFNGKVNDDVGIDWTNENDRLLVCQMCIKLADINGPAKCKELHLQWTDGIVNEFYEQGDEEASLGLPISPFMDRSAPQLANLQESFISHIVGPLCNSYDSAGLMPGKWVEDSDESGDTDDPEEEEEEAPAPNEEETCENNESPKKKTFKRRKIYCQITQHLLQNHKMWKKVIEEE
T1 sequence (Q07343 330-659 limits assumed): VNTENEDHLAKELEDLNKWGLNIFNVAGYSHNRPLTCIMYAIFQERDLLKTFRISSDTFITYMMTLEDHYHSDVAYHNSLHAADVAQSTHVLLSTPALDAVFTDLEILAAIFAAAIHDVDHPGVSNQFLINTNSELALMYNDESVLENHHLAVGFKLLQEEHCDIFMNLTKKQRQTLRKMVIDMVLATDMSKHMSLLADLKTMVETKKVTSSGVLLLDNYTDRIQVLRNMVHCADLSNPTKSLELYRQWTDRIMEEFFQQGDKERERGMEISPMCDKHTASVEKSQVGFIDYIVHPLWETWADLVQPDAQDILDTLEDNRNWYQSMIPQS

Row | SMILES | IC50 [1] | IC50 [2] | inhibition in vivo at 3 mg/kg [3]
1 | COc1ccc(-c2ccc3c(c2)CCNC3=O)c2cc(C(F)(F)F)nn12 [Example 58, 6-(7-Methoxy-2-trifluoromethylpyrazolo[1,5-a]pyridin-4-yl)-3,4-dihydroisoquinolin-1(2H)-one] | 0.01 to 0.1 µmol/L | > 1 µM | ≥ 60%
2 | COc1ccc(-c2ccc3c(c2)CNC3=O)c2cc(C(F)(F)F)nn12 [Example 59, 5-(7-Methoxy-2-trifluoromethylpyrazolo[1,5-a]pyridin-4-yl)isoindolin-1-one] | 0.01 to 0.1 µmol/L | > 1 µM | ≥ 60%
3 | COc1ccc(-c2ccc3c(c2)CCC(=O)N3C)c2cc(C(F)(F)F)nn12 [Example 102, 6-(7-Methoxy-2-trifluoromethylpyrazolo[1,5-a]pyridin-4-yl)-1-methyl-3,4-dihydroquinolin-2(1H)-one] | 0.01 to 0.1 µmol/L | > 1 µM | ≥ 60%
4 | COc1ccc(-c2ccc3c(c2)CCNC3=O)c2cc(C3CC3)nn12 [Example 121, 6-(2-Cyclopropyl-7-methoxypyrazolo[1,5-a]pyridin-4-yl)-3,4-dihydroisoquinolin-1(2H)-one] | 0.01 to 0.1 µmol/L | > 1 µM | ≥ 60%
5 | CNc1ccc(-c2ccc3c(c2)CCNC3=O)n2c(Cl)c(C(F)(F)F)nc12 [Example 143, 6-(3-Chloro-8-methylamino-2-trifluoromethylimidazo[1,2-a]pyridin-5-yl)-3,4-dihydroisoquinolin-1(2H)-one] | < 0.01 µmol/L | > 1 µM | ≥ 60%
6 | CNc1ccc(-c2ccc3c(=O)[nH]cc(Cl)c3c2)n2c(Cl)c(C(F)(F)F)nc12 [Example 145, 4-Chloro-6-(3-chloro-8-(methylamino)-2-trifluoromethylimidazo[1,2-a]pyridin-5-yl)isoquinolin-1(2H)-one] | < 0.01 µmol/L |  | 
7 | Nc1ccc(-c2ccc3c(=O)[nH]cc(Cl)c3c2)n2cc(C(F)(F)F)nc12 [Example 146, 6-(8-Amino-2-trifluoromethylimidazo[1,2-a]pyridin-5-yl)-4-chloro-isoquinolin-1(2H)-one] | 0.01 to 0.1 µmol/L |  | 

Now from value to compound, other results behind:

Row | IC50 [1] | IC50 [2] | SMILES | inhibition in vivo at 3 mg/kg [3]
8 | < 0.01 µmol/L | > 1 µM | COc1ccc(-c2ccc3c(=O)[nH]cc(Cl)c3c2)c2cc(C(F)(F)F)nn12 [Example 60, 4-Chloro-6-(7-methoxy-2-trifluoromethylpyrazolo[1,5-a]pyridin-4-yl)isoquinolin-1(2H)-one] | ≥ 60%
9 | < 0.01 µmol/L |  | COc1ccc(-c2ccc3c(c2)CCNC3=O)c2c(Cl)c(C(F)(F)F)nn12 [Example 62, 6-(3-Chloro-7-methoxy-2-trifluoromethylpyrazolo[1,5-a]pyridin-4-yl)-3,4-dihydroisoquinolin-1(2H)-one] | ≥ 60%
10 | < 0.01 µmol/L | > 1 µM | CNc1ccc(-c2ccc3c(c2)CCNC3=O)c2cc(C(F)(F)F)nn12 [Example 63, 6-(7-Methylamino-2-trifluoromethylpyrazolo[1,5-a]pyridin-4-yl)-3,4-dihydroisoquinolin-1(2H)-one] | ≥ 60%
11 | < 0.01 µmol/L | > 1 µM | CNc1ccc(-c2ccc3[nH]c(=O)ccc3c2)c2cc(C(F)(F)F)nn12 [Example 64, 6-(7-Methylamino-2-trifluoromethylpyrazolo[1,5-a]pyridin-4-yl)quinolin-2(1H)-one] | ≥ 60%
12 | < 0.01 µmol/L | > 1 µM | COc1ccc(-c2ccc3[nH]c(=O)ccc3c2)n2c(Cl)c(C(F)(F)F)nc12 [Example 89, 6-(3-Chloro-8-methoxy-2-(trifluoromethyl)imidazo[1,2-a]pyridin-5-yl)quinolin-2(1H)-one] | ≥ 60%
13 | < 0.01 µmol/L | > 1 µM | COc1ccc(-c2ccc3c(ccc(=O)n3C)c2)c2c(Cl)c(C(F)(F)F)nn12 [Example 115, 6-(3-Chloro-7-methoxy-2-trifluoromethylpyrazolo[1,5-a]pyridin-4-yl)-1-methylquinolin-2(1H)-one] | ≥ 60%
14 | < 0.01 µmol/L | > 1 µM | CNc1ccc(-c2ccc3[nH]c(=O)ccc3c2)n2c(Cl)c(C(F)(F)F)nc12 [Example 142, 6-(3-Chloro-8-methylamino-2-trifluoromethylimidazo[1,2-a]pyridin-5-yl)quinolin-2(1H)-one] | ≥ 60%
